In article PMC4589238, “Acute Biphasic Effects of Ayahuasca” (PLoS ONE, 2015):
Read-outs that look alike come from different tables or passages of the source.

Assays:
[1] = Plasma concentrations of ayahuasca compounds and metabolites after oral ayahuasca (LC/MS/MS); type: in vivo, human; details: for Cmax: po
Excerpt: A sample of six liters of "Hoasca" was donated by the União do Vegetal (UDV) church in Brazil for the specific purpose of use in this study. Quantification of the main compounds in the brew was done with liquid chromatography-electrospray ionization-tandem mass spectrometry (LC/MS/MS). The screening included the following compounds: DMT, DMT‐N‐oxide (DMT-NO), N‐methyltryptamine (NMT), indoleacetic acid (IAA), 5‐hydroxy‐DMT (5-OH-DMT, or bufotenin), 5‐methoxy‐DMT (5-MeO-DMT), Harmine, Harmol, Harmaline, Harmalol, THH, 7‐hydroxy‐tetrahydroharmine (THH-OH), and 2‐methyl‐tetrahydro‐beta‐carboline (2-MTHBC). The original liquid volume was then reduced to 50% using a rotary evaporator to decrease the amount of liquid intake.
Blood was collected in sterile EDTA containing tubes. Ten blood samples (3 mL each) were collected every 25 minutes, starting 25 minutes before ayahuasca ingestion and ending 200 minutes after ingestion (in a total of ten samples for each individual). Blood was collected by a professional nurse, with a catheter that remained in place during the entire time of the study. Each tube was carefully and slowly turned upside-down three times and then stored at 0°C until all ten samples were collected. Blood samples were then centrifuged at 2000 rpm for 10 min at 4°C and the resulting plasma immediately collected and frozen at -80°C. The frozen plasma samples were stored at -80°C until shipped on dry ice to USA for analysis according to [31]. Compounds included in this screening were DMT, DMT-NO, NMT, IAA, 5-OH-DMT (bufotenin), 5-MeO-DMT, Harmine, Harmol, Harmaline, Harmalol, THH, THH-OH and 2-MTHBC.
Two volunteers opted out of blood collection, and data from one volunteer was discarded due to high hemolysis in the blood samples. Therefore data were available from 16 volunteers. Maximum plasma Concentration (Cmax), Time for maximum plasma concentration (Tmax) and area under the curve (AUC) of ten identified compounds are summarized in Table 2. […] No significant differences were found between men and women for any of the identified compounds in blood. […] There were no significant correlations between time to vomit and Cmax or AUC.

healthy volunteers = assay: Association between plasma concentration and EEG spectral changes (generalized linear models); type: in vivo, human
Description: Relationships between plasma concentration of identified compounds and spectral changes in the six frequency bands evaluated were calculated by fitting generalized linear models (glmfit function in MATLAB) for each compound and frequency band. This analysis was followed by the non-parametric cluster based correction with 5000 permutations.
Results were considered statistically significant when p <0.05. Effect sizes are also reported, using Partial eta squared (partial η^2) for the main frequency clusters and Cohen’s d for the generalized linear models.

MAO-A = test system: MAO-A; parameters: method as in PMID 19879939; details: cited from earlier work
human subjects = details: cited from earlier work
rats = test system: rats; parameters: method as in PMID 9649961; details: cited from earlier work

## COc1ccc2c3c([nH]c2c1)C(C)=NCC3 [Harmaline]
[1]; both sexes, human, in vivo, plasma, 16 volunteers, oral ayahuasca, sampling to 200 min, read-out: Cmax (mean ± sd)
  Cmax: 14.7 ± 13.9 ng/mL
[1]; both sexes, human, in vivo, plasma, 16 volunteers, oral ayahuasca, read-out: Cmax (min—max)
  Cmax: 1.56 to 44.4 ng/mL
[1]; both sexes, human, in vivo, plasma, 16 volunteers, oral ayahuasca, read-out: Tmax (mean ± sd) (converted)
  Tmax: 2.68 h
[1]; from ayahuasca ingestion, group average curve
  Time to reach plateau of plasma level in the group average: 100 min
[1]; plasma, 16 volunteers, oral ayahuasca
  AUC (min—max): 6.16 to 199.78 g·min/mL
Healthy volunteers; delta, theta and beta frequency bands
  Clusters between plasma concentration and EEG spectra: did not show any significant clusters
Healthy volunteers; left centro-parieto-occipito-frontal electrodes
  Cohen's d, plasma concentration vs alpha band power decrease: 0.0285
Healthy volunteers; left fronto-temporo-centro-parieto-occipital electrodes also extending to right temporo-parietal electrodes
  Cohen's d, plasma concentration vs slow-gamma power increase: 0.0885
Healthy volunteers; one large widespread bilateral cluster
  Cohen's d, plasma concentration vs fast-gamma power increase: 0.0032
Healthy volunteers; right central electrodes (C2, C4, CP4 and CP6)
  Cohen's d, plasma concentration vs alpha band power decrease: 0.2944
Healthy volunteers; right frontal electrodes
  Cohen's d, plasma concentration vs slow-gamma power increase: 0.0401
MAO-A
  Potency at inhibiting MAO-A relative to MAO-B: 10,000 fold
Human subjects; oral or i.v. administration
  Dose necessary for psychoactivity: 4 mg/kg
Human subjects; oral
  Orally psychoactive dose: 300 to 400 mg
rats
  Substitution in drug discrimination: substitute the psychedelic DOM
